According to BindingDB's records for doi:10.1038/nchembio.65 (University of California San Francisco, 2008):

Test: Inhibition of yeast prion protein Sup35 infection of PSI yeast spheroplast cells

O=C1C(I)=CC(=C(c2ccccc2C(=O)O)C2C=C(I)C(=O)C(I)=C2)C=C1I [TERAIODOPHENOLPHATHALIN]
EC50: 100 µM
